{
  "source": "patent US9180171B2",
  "about": "“Method of regulating fertilizing ability using cyclic ADP-ribose and CD38” (Industrial Cooperation Foundation Chonbuk National …, priority 2011, dated 2015)",
  "key": {"sperm [1]": {"system": "sperm", "experiment": "Acrosome reaction of sperm by CD38 (ConA-FITC, A23187)", "type": "cell-based", "conditions": "for acrosome reaction of CD38-treated sperm with inhibitor: inhibitor of downstream signaling of CD31", "method": "To examine the acrosome reaction of sperm, ConA-FITC binding specifically to the acrosome of sperm was used. The isolated sperm were allowed to react with purified CD38 at 37° C. for 2 hours, and then were treated for 40 min with calcium ionophore A23187 that increases calcium in sperm to induce the acrosome reaction of sperm. Then, the sperm were placed on a glass slide, and the acrosome reaction of the sperm was examined with a fluorescence microscope."}, "CD31": {"molecular_target": "T1, CD31 (Homo sapiens, UniProt P16284)", "T1 construct": "endogenous in cells; host or cells: isolated sperm", "experiment": "Test for activation of CD31 in sperm by CD38 (immunoprecipitation, Western blot)", "type": "cell-based", "conditions": "sperm treated with 600 ng/ml CD38 for 0, 15, 30 min", "method": "In order to test the activation of CD31 in sperm, the isolated sperm were treated with 600 ng/ml CD38 for each of 0 min, 15 min and 30 min, and then buffer was added thereto to lyse the cells. Also, CD31 antibody was used to perform immunoprecipitation, and Western blot was performed using each antibody in order to examine the phosphorylation of CD31 and to examine interacting proteins."}, "sperm [2]": {"system": "sperm", "experiment": "Test for motility of sperm by CD38", "type": "cell-based", "conditions": "for motility of sperm: sperm treated with CD38; for CD38-induced increase in motility of sperm with inhibitor: sperm treated with inhibitor, then CD38", "method": "The relationship between CD31 activation by CD38 and sperm motility was analyzed. […] Also, it was seen that, when sperm were treated with the ERK1/2 inhibitor PD98059 and the ras-GTP inhibitor (FTI-277) and then treated with CD38, the increase in the motility of the sperm was inhibited."}, "mouse oocytes": {"system": "mouse oocytes", "experiment": "In vitro fertilization test", "type": "cell-based, mice", "conditions": "prostasome-bound sperm pretreated with antagonist", "method": "In vitro fertilization was performed using a modification of the method of Ren et al. (Ren et al., Nature 413, 603-609 (2001)). 10-12-week-old mice were injected with pregnant mare serum gonadotropin (PMSG) (5 IU; Sigma-Aldrich), and after 48 hours, injected with human chorionic gonadotropin (hCG) (5 IU; Sigma-Aldrich). 14 hours after the final injection, the uterine tube was removed and perfused with IVF medium (Medicult, USA), and the released oocytes were collected using a low-magnification microscope. In order to collect sperm, the epididymis of male mice was removed and cut into small pieces with scissors in the same medium, and swum-out sperm were collected. The number of cells in the sperm was measured, and the sperm were used in the test."}, "sperm [3]": {"system": "sperm", "experiment": "Measurement of calcium in sperm cells (fluo-3, confocal microscopy)", "type": "cell-based, human", "method": "In order to measure intracellular calcium release, the sperm suspension pretreated with fluo-3 (molecular probe, USA) was titrated in a confocal dish (SPL, Seoul, Korea) coated with poly-L-lysine (Sigma-Aldrich, USA) and was allowed to react in a CO2 incubator for 20 minutes to attach the cells. Calcium in the cells was measured by a confocal microscopy system (Nikon) using the method of Tsien et al. (Tsien et al., Nature 295, 68-71 (1982))."}, "sperm [4]": {"system": "sperm", "experiment": "Test for sperm motility by prostasome (CASA)", "type": "cell-based, human", "conditions": "prostasome-bound sperm treated with progesterone", "method": "Sperm motility was measured using a CASA (computer assisted sperm analysis) system (IVOS, Hamilton Thorne Biosciences, USA). The sperm suspension was titrated onto a sperm analysis slide (2X-CEL, Hamilton Thorne Biosciences, USA) having a depth of 20 μm and was automatically photographed using a 4× magnification lens, followed by analysis."}, "sperm [5]": {"system": "sperm", "experiment": "Formation of cGDPR, cyclic ADP-ribose and NAADP in prostasome-bound or -unbound sperm", "type": "cell-based, human", "method": "The isolated sperm were diluted with a weakly alkaline buffer or fusion buffer (150 mM NaCl, 1 mM CaCl2, 1 mM MgCl2, 5 mM glucose with either 2 mM Hepes (pH 8.0) or 20 mM MES (pH 5.0, fusion buffer)) containing 0.32 M sucrose. The dilution was mixed with prostasome such that the ratio of prostasome:sperm protein was 2:1. The mixture was allowed to react at 37° C. for 15 minutes. The reaction product was centrifuged at 600×g for 10 minutes, and the precipitate was collected, resuspended in BWW buffer and used in the experiment. […] Also, the binding of prostasome was the highest at a pH of 5.0 similar to the internal acidity of the female vagina and decreased toward alkaline pH values. […] In order to examine the formation of cyclic ADP-ribose and nicotinic acid adenine dinucletide phosphate which are typical metabolites of CD38, the sperm to which prostasome was unbound or bound was treated with progesterone, after which the level of each molecule in the sperm was measured at varying points of time."}},
  "note": "Entries after “also recorded” stand apart in the source; their conditions may differ.",
  "data": [
    {"compound": "CN(C)S(=O)(=O)c1ccc2c(c1)/C(=C/c1cc3c([nH]1)CCCC3)C(=O)N2", "note": "[Su6656]", "values": [
      {"measurement": "acrosome reaction of CD38-treated sperm with inhibitor", "setting": "sperm [1]", "value": "inhibited"}
    ]},
    {"compound": "CD38: purified water-soluble CD38 (sCD38), ADP-ribosyl cyclase, a cell membrane protein", "values": [
      {"measurement": "acrosome reaction of sperm", "setting": "sperm [1]; sperm with purified CD38 at 37° C. for 2 hours, then A23187 40 min", "value": "significantly increased"},
      {"measurement": "phosphorylation of CD31", "setting": "CD31", "value": "increased with time; also recorded: increased over time"},
      {"measurement": "motility of sperm", "setting": "sperm [2]", "value": "significantly increased"},
      {"measurement": "motility of sperm", "setting": "sperm [2]; listed as sCD38", "value": "increased"}
    ]},
    {"compound": "COc1cccc(-c2cc(=O)c3ccccc3o2)c1N", "note": "[PD98059]", "values": [
      {"measurement": "acrosome reaction of CD38-treated sperm with inhibitor", "setting": "sperm [1]", "value": "inhibited"},
      {"measurement": "CD38-induced increase in motility of sperm with inhibitor", "setting": "sperm [2]", "value": "inhibited"}
    ]},
    {"compound": "COC(=O)[C@H](CCSC)NC(=O)c1ccc(NC[C@@H](N)CS)cc1-c1ccccc1", "note": "[FTI-277]", "values": [
      {"measurement": "CD38-induced increase in motility of sperm with inhibitor", "setting": "sperm [2]", "value": "inhibited"}
    ]},
    {"compound": "N=c1c2nc(Br)n3c2ncn1C1OC(COP(=O)(O)OP(=O)(O)OCC2OC3C(O)C2O)C(O)C1O", "note": "(stereo not drawn) [8-Br-cADPR]", "values": [
      {"measurement": "reduction of fertilizing ability", "setting": "mouse oocytes", "value": "about 70%"},
      {"measurement": "pattern of a continuous increase in calcium by progesterone", "setting": "sperm [3]; prostasome-bound sperm pretreated with antagonist, then progesterone", "value": "inhibited"}
    ]},
    {"compound": "CC(=O)[C@H]1CC[C@H]2[C@@H]3CCC4=CC(=O)CC[C@]4(C)[C@H]3CC[C@]12C", "note": "[progesterone]", "values": [
      {"measurement": "increase of sperm motility", "setting": "sperm [4]", "value": "about 2 times"},
      {"measurement": "intracellular calcium release by progesterone", "setting": "sperm [3]; prostasome-bound sperm", "value": "intracellular calcium release immediately occurred"},
      {"measurement": "intracellular calcium reaction by progesterone", "setting": "sperm [3]; prostasome-unbound sperm", "value": "immediate calcium reaction"},
      {"measurement": "formation of nicotinic acid adenine dinucletide phosphate in sperm", "setting": "sperm [5]; prostasome-bound or -unbound sperm treated with progesterone", "value": "not formed"},
      {"measurement": "synthesis of cyclic ADP-ribose in sperm", "setting": "sperm [5]; prostasome-bound sperm treated with progesterone, within several seconds", "value": "rapidly increased"}
    ]}
  ]
}
